Experimental data: US7981903B2, “2-[2-{phenylamino}-1H-pyrrolo[2,3-D]pyrimidin-4-yl)amino] benzamide derivatives as IGF-1R inhibitors for the treatment of cancer” (GlaxoSmithKline LLC, priority 2007, dated 2011)
Where two headings read alike, the source gives them in different places.

Legend:
ALCL cells [1] = details: cited from earlier work
ALCL cells [2] = details: cited from earlier work; remark: listed apart in the source
ALK [3] = biological target: T1, ALK (Homo sapiens, UniProt Q9UM73); parameters: host or cells: ALCL cells; the other entry of the earlier key: NPM1 (P06748, Nucleophosmin); details: cited from earlier work
Target sequence in this assay (Q9UM73 with tags, fused parts or gaps): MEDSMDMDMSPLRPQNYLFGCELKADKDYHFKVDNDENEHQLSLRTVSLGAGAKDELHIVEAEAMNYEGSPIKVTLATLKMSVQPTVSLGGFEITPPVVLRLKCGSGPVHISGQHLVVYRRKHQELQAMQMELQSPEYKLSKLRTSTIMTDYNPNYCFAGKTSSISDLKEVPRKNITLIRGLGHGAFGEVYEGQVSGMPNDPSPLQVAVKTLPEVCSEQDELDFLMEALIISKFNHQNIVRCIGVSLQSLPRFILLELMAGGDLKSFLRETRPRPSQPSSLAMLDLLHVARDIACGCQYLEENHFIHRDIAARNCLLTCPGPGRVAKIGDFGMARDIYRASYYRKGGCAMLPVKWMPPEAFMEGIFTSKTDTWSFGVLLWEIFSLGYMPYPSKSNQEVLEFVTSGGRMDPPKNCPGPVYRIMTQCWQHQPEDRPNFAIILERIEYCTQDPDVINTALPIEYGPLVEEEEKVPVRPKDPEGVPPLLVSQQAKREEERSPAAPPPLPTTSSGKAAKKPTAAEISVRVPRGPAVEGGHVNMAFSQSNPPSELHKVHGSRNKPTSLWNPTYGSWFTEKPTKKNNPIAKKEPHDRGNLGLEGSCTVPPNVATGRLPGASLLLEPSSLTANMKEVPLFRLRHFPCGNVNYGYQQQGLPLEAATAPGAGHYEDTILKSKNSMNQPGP

human IR (hIR) = biological target: T2, human IR (hIR) (Homo sapiens, UniProt P06213); test: TR-FRET kinase assay of purified hIR; format: biochemical; details: activated hIR 0.5 nM, 10 μM ATP, values given as pIC50 category
T2 construct: containing amino acid residues 979-1382 of human IR; made in house; host or cells: Sf9 cells (baculovirus), same process as hIGF1R
T2 sequence (P06213 979-1382): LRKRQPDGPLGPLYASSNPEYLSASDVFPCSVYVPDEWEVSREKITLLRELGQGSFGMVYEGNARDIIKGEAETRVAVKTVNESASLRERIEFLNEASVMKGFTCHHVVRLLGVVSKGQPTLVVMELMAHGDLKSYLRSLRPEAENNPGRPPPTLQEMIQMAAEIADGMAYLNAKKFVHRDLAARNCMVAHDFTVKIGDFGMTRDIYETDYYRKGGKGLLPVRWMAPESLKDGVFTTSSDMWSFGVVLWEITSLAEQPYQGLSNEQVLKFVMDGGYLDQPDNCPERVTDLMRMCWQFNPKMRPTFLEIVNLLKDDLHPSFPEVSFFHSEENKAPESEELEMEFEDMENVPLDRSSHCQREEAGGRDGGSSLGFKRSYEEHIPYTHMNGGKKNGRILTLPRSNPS

ALK [4] = biological target: T1, ALK; test: ALK enzyme assay (HTRF); format: biochemical; details: 0.25 nM ALK, 15.0 μM ATP, values given as pIC50 category
Method in brief: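 Final compound range 0.00017 to 10 μM (twelve 1:3 dilutions). Kinase reaction with ATP and biotinylated synthetic peptide runs 120 min at 20° C, stopped with EDTA; phosphotyrosine detected by HTRF after 60 min. Inhibition referenced to DMSO (1%) and EDTA (0.1 M) controls, curve-fitted.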

Colo205 = test: Inhibition of cell proliferation (CellTiter-Glo or InCell analyzer), Colo205; format: cell-based; details: Homo sapiens, COLO 205, 72 h / 3 days, values given as IC50 category
Method in brief: In one

NCI-H929 = test: Inhibition of cell proliferation (CellTiter-Glo or InCell analyzer), NCI-H929; format: cell-based; details: Homo sapiens, 72 h / 3 days, values given as IC50 category
Description: Cell proliferation was measured by either CellTiter-Glo (measures cellular ATP level as a surrogate for total cell number) or by InCell analyzer (counts number of nuclei as a measure of cell number).
For CellTiter-Glo assay, exponentially growing cell lines of different tumor origins, cultured in appropriate media containing 10% fetal bovine serum at 37° C. in a 5% CO2 incubator, were plated at low density (less than 2000cells/well) in 96-well plates. Twenty four hours post-plating, cells were treated with different concentrations of test compounds ranging from 30 uM to 1.5 nM. Several wells were left untreated as a control. Seventy two hours post-treatment, cell numbers were determined using 50-100 ul per well of CellTiter-Glo (Promega #G7573). Plates were incubated at 37° C. for 30 minutes and the chemiluminescent signal was read on the Victor V or Envison 2100 reader.
For InCell Analyser assay, various cell lines of different tumor origins were grown to 70-80% confluency in appropriate culture media containing 10% fetal bovine serum at 37° C. in a 5% CO2 incubator. On day −1, cells were seeded at 2 densities in 384-well plates and incubated at 37° C. overnight. Stock compound plates were prepared in advance which contained dimethyl sulfoxide (DMSO) alone and a 9-point half-log decreasing dose range of the compound in DMSO. The compound plates were stored at −80° C. and each plate was only thawed once and used. On day 0, the main assay plates received compound or DMSO via a sonic delivery system (ECHO). The highest final concentration of compound of the dose range in the culture plates was 10 uM. These plates were cultured at 37° C. for 3 days. […] On day 3, the compound treated plates were stained and fixed to measure proliferation, apoptosis, and mitotic index using an InCelL1000 analyser. A nuclear stain was used to identify cells in the wells. By counting the number of nuclei, the proliferation index of compound treated groups were calculated as a percentage relative to the DMSO control, which was set to 100%. The IC50 values were calculated using model 205 in ExcelFit.
IC50 (nM) values for compounds of select examples were categorized by relative inhibition of cell proliferation.

[5] = biological target: T3, NIH-3T3 cells overexpressing human IGF-1R (Homo sapiens, UniProt P08069); test: IGF-1R cellular autophosphorylation (DELFIA); format: cell-based
T3 construct: expressed in transfected cells; host or cells: NIH-3T3 (mouse fibroblasts)
T3 sequence (P08069 31-1367): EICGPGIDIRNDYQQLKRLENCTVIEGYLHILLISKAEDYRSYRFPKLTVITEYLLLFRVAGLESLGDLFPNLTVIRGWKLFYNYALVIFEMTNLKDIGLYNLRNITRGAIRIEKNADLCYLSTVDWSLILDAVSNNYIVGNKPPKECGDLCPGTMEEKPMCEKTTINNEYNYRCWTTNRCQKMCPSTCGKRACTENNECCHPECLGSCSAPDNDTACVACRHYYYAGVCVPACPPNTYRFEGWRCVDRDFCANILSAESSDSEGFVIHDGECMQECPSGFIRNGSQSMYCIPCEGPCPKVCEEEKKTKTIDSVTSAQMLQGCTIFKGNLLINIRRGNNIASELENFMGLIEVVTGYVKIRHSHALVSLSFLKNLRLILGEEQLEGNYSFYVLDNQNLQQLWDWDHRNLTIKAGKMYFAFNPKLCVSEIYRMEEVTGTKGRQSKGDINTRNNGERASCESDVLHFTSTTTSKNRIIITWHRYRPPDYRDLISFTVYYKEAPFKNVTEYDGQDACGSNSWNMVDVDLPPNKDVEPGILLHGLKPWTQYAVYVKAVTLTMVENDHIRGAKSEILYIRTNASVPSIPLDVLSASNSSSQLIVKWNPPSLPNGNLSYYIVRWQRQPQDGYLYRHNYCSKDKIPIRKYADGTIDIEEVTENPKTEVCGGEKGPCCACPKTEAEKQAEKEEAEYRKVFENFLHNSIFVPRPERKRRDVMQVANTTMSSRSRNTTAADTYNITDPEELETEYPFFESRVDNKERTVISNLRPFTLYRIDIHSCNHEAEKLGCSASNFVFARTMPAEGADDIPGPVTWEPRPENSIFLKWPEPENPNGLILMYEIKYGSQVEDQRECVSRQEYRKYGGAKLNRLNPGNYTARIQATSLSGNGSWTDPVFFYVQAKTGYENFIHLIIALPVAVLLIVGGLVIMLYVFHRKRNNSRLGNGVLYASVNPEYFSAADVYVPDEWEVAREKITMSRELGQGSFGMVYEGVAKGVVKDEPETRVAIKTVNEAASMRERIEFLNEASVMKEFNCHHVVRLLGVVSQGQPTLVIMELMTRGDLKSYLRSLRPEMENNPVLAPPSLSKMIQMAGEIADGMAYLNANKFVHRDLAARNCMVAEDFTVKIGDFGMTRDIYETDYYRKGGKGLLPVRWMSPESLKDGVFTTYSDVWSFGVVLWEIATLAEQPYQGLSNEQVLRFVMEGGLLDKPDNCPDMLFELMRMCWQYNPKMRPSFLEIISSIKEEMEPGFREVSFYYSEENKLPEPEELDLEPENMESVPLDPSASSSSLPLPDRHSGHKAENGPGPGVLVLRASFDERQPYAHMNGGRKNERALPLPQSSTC
Method in brief: (§1)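 Receptor autophosphorylation measured by DELFIA, capturing IGF-1R or IRβ and detecting with europium anti-pTyr, reported as percent of IGF-1- or insulin-stimulated signal. Compounds (30 uM to 1.5 nM) added 2 h before ligand, then 15 min stimulation (IGF-1 30 ng/ml or insulin 3 ug/ml).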

[6] = biological target: T4, NIH-3T3 cells overexpressing human IR (Homo sapiens, UniProt P06213); test: IR cellular autophosphorylation (DELFIA); format: cell-based; details: 2 h compound, insulin 3 ug/ml for 15 minutes, IC50 category
T4 construct: expressed in transfected cells; host or cells: NIH-3T3 (mouse fibroblasts)
T4 sequence (P06213 28-1382): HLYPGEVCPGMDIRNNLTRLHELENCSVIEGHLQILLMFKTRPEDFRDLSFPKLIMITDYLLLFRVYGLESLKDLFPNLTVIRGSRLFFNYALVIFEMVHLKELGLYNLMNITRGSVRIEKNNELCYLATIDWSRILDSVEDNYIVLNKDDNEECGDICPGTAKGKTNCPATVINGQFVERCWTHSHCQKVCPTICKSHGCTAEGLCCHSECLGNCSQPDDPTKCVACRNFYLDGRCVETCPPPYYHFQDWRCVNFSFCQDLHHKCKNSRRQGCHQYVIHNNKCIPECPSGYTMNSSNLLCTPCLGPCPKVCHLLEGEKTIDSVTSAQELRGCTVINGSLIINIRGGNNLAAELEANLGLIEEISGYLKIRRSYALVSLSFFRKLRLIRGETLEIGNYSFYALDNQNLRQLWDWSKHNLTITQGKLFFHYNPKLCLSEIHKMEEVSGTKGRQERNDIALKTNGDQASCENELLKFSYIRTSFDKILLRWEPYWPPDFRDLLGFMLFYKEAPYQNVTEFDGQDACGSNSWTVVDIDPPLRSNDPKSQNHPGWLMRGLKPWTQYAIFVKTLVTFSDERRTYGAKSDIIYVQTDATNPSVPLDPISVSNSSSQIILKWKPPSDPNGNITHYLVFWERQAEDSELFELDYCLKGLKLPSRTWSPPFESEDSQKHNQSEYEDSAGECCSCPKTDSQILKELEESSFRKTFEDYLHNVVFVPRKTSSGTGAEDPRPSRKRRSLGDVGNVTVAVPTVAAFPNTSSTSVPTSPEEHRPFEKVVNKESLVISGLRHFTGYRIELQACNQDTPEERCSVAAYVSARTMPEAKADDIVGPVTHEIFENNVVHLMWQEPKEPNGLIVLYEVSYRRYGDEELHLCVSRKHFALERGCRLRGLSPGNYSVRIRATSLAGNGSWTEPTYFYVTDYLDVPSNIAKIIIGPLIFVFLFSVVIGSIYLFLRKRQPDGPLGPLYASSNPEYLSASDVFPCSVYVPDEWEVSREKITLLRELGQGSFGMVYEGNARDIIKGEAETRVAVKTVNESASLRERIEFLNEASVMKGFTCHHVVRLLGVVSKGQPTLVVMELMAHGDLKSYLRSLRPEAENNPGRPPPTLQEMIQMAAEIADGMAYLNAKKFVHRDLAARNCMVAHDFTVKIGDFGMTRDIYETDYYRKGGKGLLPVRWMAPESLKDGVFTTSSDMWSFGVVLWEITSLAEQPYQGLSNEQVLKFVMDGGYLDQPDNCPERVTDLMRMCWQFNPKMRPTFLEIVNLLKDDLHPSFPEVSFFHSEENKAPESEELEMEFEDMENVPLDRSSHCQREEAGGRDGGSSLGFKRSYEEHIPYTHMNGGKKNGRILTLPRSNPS
Method in brief: as §1

human IGF1R (hIGF1R) = biological target: T5, human IGF1R (hIGF1R) (Homo sapiens, UniProt P08069); test: TR-FRET kinase assay of purified hIGF1R; format: biochemical; details: activated hIGF1R 0.5 nM, 10 μM ATP, values given as pIC50 category, read-out: IGF-1R pIC50 (converted)
T5 construct: containing amino acid residues 957-1367 of human IGF1R; made in house; host or cells: Sf9 cells (baculovirus)
T5 sequence (P08069 957-1367): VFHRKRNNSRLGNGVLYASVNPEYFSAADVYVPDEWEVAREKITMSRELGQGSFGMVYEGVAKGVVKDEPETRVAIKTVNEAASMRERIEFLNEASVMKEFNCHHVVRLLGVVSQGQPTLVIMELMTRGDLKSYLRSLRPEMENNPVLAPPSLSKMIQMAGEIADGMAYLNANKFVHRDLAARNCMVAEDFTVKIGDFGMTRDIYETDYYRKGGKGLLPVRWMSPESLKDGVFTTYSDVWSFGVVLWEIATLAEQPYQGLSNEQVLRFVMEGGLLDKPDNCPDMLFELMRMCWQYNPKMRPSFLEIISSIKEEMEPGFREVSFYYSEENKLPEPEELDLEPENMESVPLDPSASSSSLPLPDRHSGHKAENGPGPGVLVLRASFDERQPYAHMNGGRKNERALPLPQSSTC

**Q.** Which results are given for “5-chloro-2,4-diaminophenylpyrimidine [NVP-TAE68]”?
**A.** activity against ALCL cells (ALCL cells [1]; in vitro): active against ALCL cells; activity in tumor xenograft models (ALCL cells [2]; tumor xenograft models): active; consequence of the inhibition of ALK autophosphorylation in the cells (ALK [3]): cell cycle arrest and apoptosis; inhibition of ALK autophosphorylation (ALK [3]): inhibited ALK autophosphorylation

**Q.** With `CCCN1CCC=C(c2ccc(OC)c(Nc3nc(Nc4ccc(F)cc4C(N)=O)c4cc[nH]c4n3)c2)C1` [Example 57, 5-fluoro-2-[(2-{[2-(methyloxy)-5-(1-propyl-1,2,5,6-tetrahydro-3-pyridinyl)phenyl]amino}-1H-pyrrolo[2,3-d]pyrimidin-4-yl)amino]benzamide] as the compound, how does the IC50 (human IR (hIR)) read?
**A.** 0.000251 to 0.001 µM

**Q.** What about the IC50 (ALK [4]) of the same compound?
**A.** 0.000251 to 0.001 µM

**Q.** What about the IC50 (Colo205) of the same compound?
**A.** < 0.25 µM

**Q.** What about the IC50 (NCI-H929) of the same compound?
**A.** < 0.25 µM

**Q.** What about the IC50 [5] of the same compound?
**A.** < 0.1 µM

**Q.** What about the IC50 [6] of the same compound?
**A.** < 0.1 µM

**Q.** Which results are given for `COc1cc(N2CCN(C(C)C)CC2)ccc1Nc1nc(Nc2ccc(F)cc2C(N)=O)c2cc[nH]c2n1` [Example 60, 5-fluoro-2-[(2-{[4-[4-(1-methylethyl)-1-piperazinyl]-2-(methyloxy)phenyl]amino}-1H-pyrrolo[2,3-d]pyrimidin-4-yl)amino]benzamide]?
**A.** IC50 (human IR (hIR)): 0.000251 to 0.001 µM; IC50 (ALK [4]): 0.000251 to 0.001 µM; IC50 (Colo205): < 0.25 µM; IC50 (NCI-H929): < 0.25 µM; IC50 [5]: < 0.1 µM; IC50 [6]: 0.1 to 0.5 µM

**Q.** What does the source list for `COc1cc2c(cc1Nc1nc(Nc3cccc(F)c3C(N)=O)c3c(C)c[nH]c3n1)N(C(=O)CN(C)C)CC2` [Example 259, 2-[(2-{[1-(N,N-dimethylglycyl)-5-(methyloxy)-2,3-dihydro-1H-indol-6-yl]amino}-5-methyl-1H-pyrrolo[2,3-d]pyrimidin-4-yl)amino]-6-fluorobenzamide]?
**A.** IC50 (human IGF1R (hIGF1R)): 0.000251 to 0.001 µM; IC50 (human IR (hIR)): 0.000251 to 0.001 µM; IC50 (Colo205): 0.25 to 1 µM; IC50 (NCI-H929): < 0.25 µM; IC50 [5]: 0.1 to 0.5 µM; IC50 [6]: 0.1 to 0.5 µM

**Q.** Which “inhibition of the growth of ALCL cells” value (ALCL cells [1]; experimental systems in vitro) does the source give for `C[C@@H](Oc1cc(-c2cnn(C3CCNCC3)c2)cnc1N)c1c(Cl)ccc(F)c1Cl` [PF2341066] here?
**A.** inhibit the growth of ALCL cells

**Q.** And the “inhibition of the growth of ALCL cells” value (ALCL cells [2]; experimental systems in vivo)?
**A.** inhibit the growth of ALCL cells
